Earlier results in patent US20050043786A1, “Methods and apparatus for treatment of aneurysmal tissue” (Medtronic AVE, Inc., priority 2003, published 2005).

Settings: for route of clearance / elimination: in vivo

CCC(=O)O[C@@H](O[P@](=O)(CCCCc1ccccc1)CC(=O)N1C[C@H](C2CCCCC2)C[C@H]1C(=O)O)C(C)C [fosinopril]
route of clearance / elimination: balanced elimination by the liver and kidneys

NCCCC[C@H](N[C@@H](CCc1ccccc1)C(=O)O)C(=O)N1CCC[C@H]1C(=O)O [lisinopril]
time of peak concentrations in the plasma (oral administration): about 7 hours

C[C@H](CS)C(=O)N1CCC[C@H]1C(=O)O [captopril]
bioavailability (given orally): about 75%

CCOC(=O)[C@H](CCc1ccccc1)N[C@@H](C)C(=O)N1CC2(C[C@H]1C(=O)O)SCCS2 [spirapril]
route of clearance / elimination: balanced elimination by the liver and kidneys
